The results in this text go back to patent US12428406B2 (PMV Pharmaceuticals, Inc., priority 2019, dated 2025).

The target in this test is T1, p53 Y220C (Homo sapiens, UniProt P04637, Y220C).
T1 construct: The recombinant protein was a truncation mutant containing only amino acids 94-312 of p53; made in house; host or cells: E. coli
T1 sequence (P04637 94-312, change not shown): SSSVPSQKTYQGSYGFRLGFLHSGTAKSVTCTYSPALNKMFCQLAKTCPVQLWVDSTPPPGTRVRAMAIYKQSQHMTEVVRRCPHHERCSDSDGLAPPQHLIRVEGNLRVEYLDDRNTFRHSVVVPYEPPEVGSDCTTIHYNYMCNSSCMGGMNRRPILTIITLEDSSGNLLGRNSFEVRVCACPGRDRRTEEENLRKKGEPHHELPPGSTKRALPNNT
Description: In vitro DNA binding activity assay (HTRF / TR-FRET): stabilization of p53 Y220C and increase of its DNA binding activity. In kind it is biochemical. The conditions noted are these: recombinant His-tagged p53 Y220C DNA binding domain (aa 94-312), biotin-labeled consensus DNA, incubated at 27° C. or 29° C. for 60 min. The essentials:
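E. coli His-p53 Y220C + biotin consensus DNA; anti-His-APC/SA-Eu TR-FRET. SC150 vs no-compound.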
For `COc1cc(C(N)=O)ccc1NCC#Cc1cc2c(N[C@H]3CC[C@H](N(C)C)CC3)cccc2n1CC(F)(F)F` [Compound 73A, 3-methoxy-4-{[3-(4-{[(1R,4R)-4-(dimethyl-amino)cyclohexyl]amino}-1-(2,2,2-trifluoroethyl)-1H-indol-2-yl)prop-2-yn-1-yl]amino}benzamide], the “SC150 (concentration of the compound required to increase the DNA binding activity by 50%)” value is listed as “+ (+ = 0 μM ≤ SC150 < 0.05 μM)”.

`CNC(=O)c1ccc(NCC#Cc2cc3c(N[C@H]4CC[C@H](N(C)C)CC4)cccc3n2CC(F)(F)F)c(OC)c1` [Compound 74A, 3-methoxy-N-methyl-4-{[3-(4-{[(1R,4R)-4-(dimethylamino)cyclohexyl]amino}-1-(2,2,2-trifluoroethyl)-1H-indol-2-yl)prop-2-yn-1-yl]amino}benzamide]: the “SC150 (concentration of the compound required to increase the DNA binding activity by 50%)” value is “+ (+ = 0 μM ≤ SC150 < 0.05 μM)”. `CNC(=O)c1ccc(NCC#Cc2cc3c(N[C@H]4CC[C@@H](N(C)C)CC4)cccc3n2CC(F)(F)F)c(OC)c1` [Compound 75A, 3-methoxy-N-methyl-4-{[3-(4-{[(1S,4S)-4-(dimethylamino)cyclohexyl]amino}-1-(2,2,2-trifluoroethyl)-1H-indol-2-yl)prop-2-yn-1-yl]amino}benzamide]: the “SC150 (concentration of the compound required to increase the DNA binding activity by 50%)” value is “++ (++ = 0.05 μM ≤ SC150 < 0.1 μM)”. For `COc1cc(S(=O)(=O)N2CCN(C)CC2)ccc1NCC#Cc1cc2c(N[C@H]3CC[C@H](N(C)C)CC3)cccc2n1CC(F)(F)F` [Compound 76A, (1R,4R)-N^4-{2-[3-({2-methoxy-4-[(4-methylpiperazin-1-yl)sulfonyl]phenyl}amino)prop-1-yn-1-yl]-1-(2,2,2-trifluoroethyl)-1H-indol-4-yl}-N^1,N^1-dimethyl-cyclohexane-1,4-diamine], the “SC150 (concentration of the compound required to increase the DNA binding activity by 50%)” value is listed as “+ (+ = 0 μM ≤ SC150 < 0.05 μM)”. The entry for `COc1cc(S(C)(=O)=O)ccc1NCC#Cc1cc2c(N[C@H]3CC[C@H](N(C)C)CC3)cccc2n1CC1CO1` (stereo partly drawn) [Compound 77A, (1R,4R)—N^4-(2-{3-[(4-methanesulfonyl-2-methoxyphenyl)amino]prop-1-yn-1-yl}-1-[(oxiran-2-yl)methyl]-1H-indol-4-yl)-N^1,N^1-dimethylcyclohexane-1,4-diamine] is “++++ (++++ = 0.2 μM ≤ SC150 < 1 μM)”. Then `C=C(C#N)Cn1c(C#CCNc2ccc(S(C)(=O)=O)cc2OC)cc2c(N[C@H]3CC[C@H](N(C)C)CC3)cccc21` [Compound 78A, 2-[(2-{3-[(4-methanesulfonyl-2-methoxyphenyl)amino]prop-1-yn-1-yl}-4-{[(1R,4R)-4-(dimethylamino)cyclohexyl]amino}-1H-indol-1-yl)methyl]prop-2-enenitrile], with “+++ (+++ = 0.1 μM ≤ SC150 < 0.2 μM)”; and `CN(C)[C@H]1CC[C@@H](Nc2cccc3c2cc(C#CCNc2ccc(S(C)(=O)=O)cc2O)n3CC(F)(F)F)CC1` [Compound 79A, 5-methanesulfonyl-2-{[3-(4-{[(1R,4R)-4-(dimethylamino)cyclohexyl]amino}-1-(2,2,2-trifluoroethyl)-1H-indol-2-yl)prop-2-yn-1-yl]amino}phenol], with “+ (+ = 0 μM ≤ SC150 < 0.05 μM)”. Then `CN(C)[C@H]1CC[C@H](Nc2cccc3c2cc(C#CCNc2ccc(S(C)(=O)=O)cc2O)n3CC(F)(F)F)CC1` [Compound 80A, 5-methanesulfonyl-2-{[3-(4-{[(1S,4S)-4-(dimethylamino)cyclohexyl]amino}-1-(2,2,2-trifluoroethyl)-1H-indol-2-yl)prop-2-yn-1-yl]amino}phenol], with “+ (+ = 0 μM ≤ SC150 < 0.05 μM)”; and `CN(C)[C@H]1CC[C@H](Nc2cccc3c2cc(C#CCNc2ccc(S(C)(=O)=O)cc2OCC#N)n3CC(F)(F)F)CC1` [Compound 81A, 2-(5-methanesulfonyl-2-{[3-(4-{[(1R,4R)-4-(dimethylamino)cyclohexyl]amino}-1-(2,2,2-trifluoro-ethyl)-1H-indol-2-yl)prop-2-yn-1-yl]amino}phenoxy)acetonitrile], with “+ (+ = 0 μM ≤ SC150 < 0.05 μM)”; and `CN(C)[C@H]1CC[C@@H](Nc2cccc3c2cc(C#CCNc2ccc(S(C)(=O)=O)cc2OCC#N)n3CC(F)(F)F)CC1` [Compound 82A, 2-(5-methanesulfonyl-2-{[3-(4-{[(1S,4S)-4-(dimethylamino)cyclohexyl]amino}-1-(2,2,2-trifluoro-ethyl)-1H-indol-2-yl)prop-2-yn-1-yl]amino}phenoxy)acetonitrile], with “+ (+ = 0 μM ≤ SC150 < 0.05 μM)”.

For the compound `COc1cc(S(=O)(=O)NC(C)=O)ccc1NCC#Cc1cc2c(N[C@H]3CC[C@H](N(C)C)CC3)cccc2n1CC(F)(F)F` [Compound 83A, N-(3-methoxy-4-{[3-(4-{[(1R,4R)-4-(dimethylamino)cyclohexyl]amino}-1-(2,2,2-trifluoroethyl)-1H-indol-2-yl)prop-2-yn-1-yl]amino}benzenesulfonyl)acetamide], the “SC150 (concentration of the compound required to increase the DNA binding activity by 50%)” value is listed as “+ (+ = 0 μM ≤ SC150 < 0.05 μM)”. The entry for `COc1cc(S(=O)(=O)NC(C)=O)ccc1NCC#Cc1cc2c(N[C@H]3CC[C@@H](N(C)C)CC3)cccc2n1CC(F)(F)F` [Compound 84A, N-(3-methoxy-4-{[3-(4-{[(1S,4S)-4-(dimethylamino)cyclohexyl]amino}-1-(2,2,2-trifluoroethyl)-1H-indol-2-yl)prop-2-yn-1-yl]amino}benzenesulfonyl)acetamide] is “++ (++ = 0.05 μM ≤ SC150 < 0.1 μM)”. Then `CCC(=O)NS(=O)(=O)c1ccc(NCC#Cc2cc3c(N[C@H]4CC[C@H](N(C)C)CC4)cccc3n2CC(F)(F)F)c(OC)c1` [Compound 85A, N-(3-methoxy-4-{[3-(4-{[(1R,4R)-4-(dimethylamino)cyclohexyl]amino}-1-(2,2,2-trifluoroethyl)-1H-indol-2-yl)prop-2-yn-1-yl]amino}benzenesulfonyl)propanamide], with “+ (+ = 0 μM ≤ SC150 < 0.05 μM)”.

For the compound `CCC(=O)NS(=O)(=O)c1ccc(NCC#Cc2cc3c(N[C@H]4CC[C@@H](N(C)C)CC4)cccc3n2CC(F)(F)F)c(OC)c1` [Compound 86A], the “SC150 (concentration of the compound required to increase the DNA binding activity by 50%)” value is listed as “+ (+ = 0 μM ≤ SC150 < 0.05 μM)”. Then `CN(C)[C@H]1CC[C@H](Nc2cccc3c2cc(C#CCNc2ccc(S(C)(=O)=O)cc2OCCO)n3CC(F)(F)F)CC1` [Compound 87A, 2-(5-methanesulfonyl-2-{[3-(4-{[(1R,4R)-4-(dimethylamino)cyclohexyl]amino}-1-(2,2,2-trifluoroethyl)-1H-indol-2-yl)prop-2-yn-1-yl]amino}phenoxy)ethan-1-ol], with “+ (+ = 0 μM ≤ SC150 < 0.05 μM)”. With `CN(C)[C@H]1CC[C@@H](Nc2cccc3c2cc(C#CCNc2ccc(S(C)(=O)=O)cc2OCCO)n3CC(F)(F)F)CC1` [Compound 88A, 2-(5-methanesulfonyl-2-{[3-(4-{[(1S,4S)-4-(dimethylamino)cyclohexyl]amino}-1-(2,2,2-trifluoro-ethyl)-1H-indol-2-yl)prop-2-yn-1-yl]amino}phenoxy)ethan-1-ol], the “SC150 (concentration of the compound required to increase the DNA binding activity by 50%)” value is listed as “+ (+ = 0 μM ≤ SC150 < 0.05 μM)”.

Turning to `COCCOc1cc(S(C)(=O)=O)ccc1NCC#Cc1cc2c(N[C@H]3CC[C@H](N(C)C)CC3)cccc2n1CC(F)(F)F` [Compound 89A, (1R,4R)-N^4-[2-(3-{[4-methanesulfonyl-2-(2-methoxyethoxy)phenyl]amino}prop-1-yn-1-yl)-1-(2,2,2-trifluoro-ethyl)-1H-indol-4-yl]-N^1,N^1-dimethylcyclo-hexane-1,4-diamine], the “SC150 (concentration of the compound required to increase the DNA binding activity by 50%)” value is on record as “+ (+ = 0 μM ≤ SC150 < 0.05 μM)”. The entry for `CN(C)[C@H]1CC[C@H](Nc2cccc3c2cc(C#CCNc2ccc(S(C)(=O)=O)cc2OCC(F)(F)F)n3CC(F)(F)F)CC1` [Compound 92A, (1R,4R)-N^4-[2-(3-{[4-methanesulfonyl-2-(2,2,2-trifluoroethoxy)phenyl]amino}prop-1-yn-1-yl)-1-(2,2,2-trifluoro-ethyl)-1H-indol-4-yl]-N^1,N^1-dimethylcyclo-hexane-1,4-diamine] is “+ (+ = 0 μM ≤ SC150 < 0.05 μM)”; for `CN(C)[C@H]1CC[C@@H](Nc2cccc3c2cc(C#CCNc2ccc(S(C)(=O)=O)cc2OCC(F)(F)F)n3CC(F)(F)F)CC1` [Compound 93A, (1S,4S)-N^4-[2-(3-{[4-methanesulfonyl-2-(2,2,2-trifluoroethoxy)phenyl]amino}prop-1-yn-1-yl)-1-(2,2,2-trifluoro-ethyl)-1H-indol-4-yl]-N^1,N^1-dimethylcyclo-hexane-1,4-diamine] it is “+ (+ = 0 μM ≤ SC150 < 0.05 μM)”. Then `CN(C)[C@H]1CC[C@@H](Nc2cccc3c2cc(C#CCOc2ccc(S(C)(=O)=O)cc2N)n3CC(F)(F)F)CC1` [Compound 94A, (1S,4S)-N4-{2-[3-(2-amino-4-methane-sulfonylphenoxy)prop-1-yn-1-yl]-1-(2,2,2-trifluoroethyl)-1H-indol-4-yl}-N^1,N^1-dimethylcyclohexane-1,4-diamine], with “+++ (+++ = 0.1 μM ≤ SC150 < 0.2 μM)”. On to `CCOc1cc(S(C)(=O)=O)ccc1NCC#Cc1cc2c(N[C@H]3CC[C@H](N(C)C)CC3)cccc2n1CC(F)(F)F` [Compound 95A, (1R,4R)—N^4-(2-{3-[(2-ethoxy-4-methanesulfonylphenyl)amino]prop-1-yn-1-yl}-1-(2,2,2-trifluoroethyl)-1H-indol-4-yl)-N^1,N^1-dimethylcyclohexane-1,4-diamine], for which the “SC150 (concentration of the compound required to increase the DNA binding activity by 50%)” value is “+ (+ = 0 μM ≤ SC150 < 0.05 μM)”.
